Assay results as given in ChEMBL document CHEMBL5678818, “Discovery of potent SOS1 inhibitors that block RAS activation via disruption of the RAS-SOS1 interaction” (Proc Natl Acad Sci U S A, 2019).

Key:
[1] = molecular target: Vascular endothelial growth factor receptor 2 (Homo sapiens) (UniProt P35968); assay: Inhibition of VEGFR2 (unknown origin) assessed as residual activity at 100 nM by KINOMEscan analysis relative to control
[2] = molecular target: T1, Dual specificity protein kinase TTK (Homo sapiens) (UniProt P33981); assay: Inhibition of TTK (unknown origin) assessed as residual activity at 100 nM by KINOMEscan analysis relative to control
T1 sequence (whole entry): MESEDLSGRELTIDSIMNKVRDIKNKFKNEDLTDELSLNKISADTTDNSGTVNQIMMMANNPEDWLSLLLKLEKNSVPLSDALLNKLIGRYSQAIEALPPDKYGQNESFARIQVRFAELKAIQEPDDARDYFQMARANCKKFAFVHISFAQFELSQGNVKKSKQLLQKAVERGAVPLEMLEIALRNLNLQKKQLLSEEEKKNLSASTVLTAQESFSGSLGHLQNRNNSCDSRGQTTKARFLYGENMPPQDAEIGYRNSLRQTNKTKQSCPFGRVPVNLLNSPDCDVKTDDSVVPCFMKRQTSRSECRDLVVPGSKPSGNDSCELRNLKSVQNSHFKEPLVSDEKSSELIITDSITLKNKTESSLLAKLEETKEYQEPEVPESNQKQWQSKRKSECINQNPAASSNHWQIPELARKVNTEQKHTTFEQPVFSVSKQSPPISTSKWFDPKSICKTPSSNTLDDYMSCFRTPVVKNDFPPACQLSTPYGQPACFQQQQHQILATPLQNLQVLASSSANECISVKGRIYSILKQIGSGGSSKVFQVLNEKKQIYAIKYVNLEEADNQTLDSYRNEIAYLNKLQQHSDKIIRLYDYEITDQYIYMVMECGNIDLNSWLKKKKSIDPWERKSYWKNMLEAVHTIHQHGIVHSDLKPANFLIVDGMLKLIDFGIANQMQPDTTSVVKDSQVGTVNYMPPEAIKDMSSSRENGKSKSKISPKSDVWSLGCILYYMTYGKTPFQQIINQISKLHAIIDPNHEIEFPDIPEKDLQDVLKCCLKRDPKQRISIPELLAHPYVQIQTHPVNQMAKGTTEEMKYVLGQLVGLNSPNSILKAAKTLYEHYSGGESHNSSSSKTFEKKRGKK

[3] = molecular target: T2, Serine/threonine-protein kinase PLK4 (Homo sapiens) (UniProt O00444); assay: Inhibition of PLK4 (unknown origin) assessed as residual activity at 100 nM by KINOMEscan analysis relative to control
T2 sequence (whole entry): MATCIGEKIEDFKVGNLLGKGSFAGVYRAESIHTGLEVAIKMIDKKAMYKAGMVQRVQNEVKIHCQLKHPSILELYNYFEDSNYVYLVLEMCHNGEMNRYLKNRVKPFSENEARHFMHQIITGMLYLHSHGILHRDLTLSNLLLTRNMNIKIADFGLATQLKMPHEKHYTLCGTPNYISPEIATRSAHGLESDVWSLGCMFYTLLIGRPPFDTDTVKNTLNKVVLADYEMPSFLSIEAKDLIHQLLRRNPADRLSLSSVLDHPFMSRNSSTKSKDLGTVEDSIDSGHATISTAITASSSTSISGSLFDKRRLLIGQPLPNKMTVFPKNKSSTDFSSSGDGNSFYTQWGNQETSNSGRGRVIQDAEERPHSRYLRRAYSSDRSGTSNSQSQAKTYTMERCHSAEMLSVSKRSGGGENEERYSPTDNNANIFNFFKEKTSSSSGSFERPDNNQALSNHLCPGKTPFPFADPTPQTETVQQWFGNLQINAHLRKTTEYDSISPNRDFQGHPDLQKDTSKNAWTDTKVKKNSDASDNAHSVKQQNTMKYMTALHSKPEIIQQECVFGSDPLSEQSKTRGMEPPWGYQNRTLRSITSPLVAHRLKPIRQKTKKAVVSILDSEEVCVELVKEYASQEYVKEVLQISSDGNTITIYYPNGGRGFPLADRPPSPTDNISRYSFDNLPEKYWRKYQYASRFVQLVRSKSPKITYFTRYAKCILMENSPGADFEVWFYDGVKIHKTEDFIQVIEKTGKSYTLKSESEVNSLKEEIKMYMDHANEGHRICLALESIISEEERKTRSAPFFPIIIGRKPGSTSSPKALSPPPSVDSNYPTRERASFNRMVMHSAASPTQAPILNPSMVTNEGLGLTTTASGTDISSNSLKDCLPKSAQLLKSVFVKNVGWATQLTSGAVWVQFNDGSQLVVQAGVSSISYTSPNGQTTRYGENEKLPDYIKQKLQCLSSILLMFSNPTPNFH

[4] = molecular target: Mitogen-activated protein kinase kinase kinase 11 (Homo sapiens) (UniProt Q16584); assay: Inhibition of MLK3 (unknown origin) assessed as residual activity at 100 nM by KINOMEscan analysis relative to control
[5] = molecular target: Serine/threonine-protein kinase 33 (Homo sapiens) (UniProt Q9BYT3); assay: Inhibition of STK33 (unknown origin) assessed as residual activity at 100 nM by KINOMEscan analysis relative to control
Sequence of Serine/threonine-protein kinase 33 (Homo sapiens) (Q9BYT3 whole entry, looked up): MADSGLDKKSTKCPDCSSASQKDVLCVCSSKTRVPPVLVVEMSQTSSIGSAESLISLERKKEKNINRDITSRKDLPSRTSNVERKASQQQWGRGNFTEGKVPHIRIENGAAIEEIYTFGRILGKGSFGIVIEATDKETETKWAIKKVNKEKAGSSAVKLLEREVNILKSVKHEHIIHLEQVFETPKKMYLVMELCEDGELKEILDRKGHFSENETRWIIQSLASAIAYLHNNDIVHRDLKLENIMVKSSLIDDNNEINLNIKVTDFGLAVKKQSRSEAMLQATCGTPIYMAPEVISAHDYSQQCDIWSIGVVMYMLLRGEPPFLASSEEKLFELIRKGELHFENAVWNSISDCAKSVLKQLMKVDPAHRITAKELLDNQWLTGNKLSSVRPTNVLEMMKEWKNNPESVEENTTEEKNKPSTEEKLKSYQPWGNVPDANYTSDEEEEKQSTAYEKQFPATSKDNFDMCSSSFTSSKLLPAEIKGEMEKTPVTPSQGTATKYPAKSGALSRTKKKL

Sequence of Mitogen-activated protein kinase kinase kinase 11 (Homo sapiens) (Q16584 whole entry, looked up): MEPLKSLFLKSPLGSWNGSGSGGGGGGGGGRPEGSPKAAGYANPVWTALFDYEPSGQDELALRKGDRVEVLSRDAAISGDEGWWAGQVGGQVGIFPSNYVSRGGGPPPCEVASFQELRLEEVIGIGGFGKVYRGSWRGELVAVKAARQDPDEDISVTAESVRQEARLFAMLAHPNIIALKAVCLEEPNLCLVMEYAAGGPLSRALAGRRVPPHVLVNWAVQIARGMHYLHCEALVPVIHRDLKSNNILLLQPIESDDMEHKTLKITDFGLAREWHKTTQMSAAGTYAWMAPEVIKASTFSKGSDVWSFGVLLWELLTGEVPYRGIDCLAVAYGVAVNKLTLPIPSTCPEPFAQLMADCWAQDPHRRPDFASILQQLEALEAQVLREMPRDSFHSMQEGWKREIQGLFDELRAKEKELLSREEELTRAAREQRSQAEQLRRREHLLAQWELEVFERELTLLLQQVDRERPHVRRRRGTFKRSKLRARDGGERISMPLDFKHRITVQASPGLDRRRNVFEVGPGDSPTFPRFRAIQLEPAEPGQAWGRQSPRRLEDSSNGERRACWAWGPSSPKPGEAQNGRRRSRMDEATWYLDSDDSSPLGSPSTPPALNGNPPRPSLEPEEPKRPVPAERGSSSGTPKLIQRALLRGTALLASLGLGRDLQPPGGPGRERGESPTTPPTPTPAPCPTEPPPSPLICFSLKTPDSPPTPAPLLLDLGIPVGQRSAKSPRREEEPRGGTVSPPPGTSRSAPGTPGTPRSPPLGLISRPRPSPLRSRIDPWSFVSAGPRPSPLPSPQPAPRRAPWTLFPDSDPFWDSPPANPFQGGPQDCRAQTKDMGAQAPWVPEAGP
Sequence of Vascular endothelial growth factor receptor 2 (Homo sapiens) (P35968 whole entry): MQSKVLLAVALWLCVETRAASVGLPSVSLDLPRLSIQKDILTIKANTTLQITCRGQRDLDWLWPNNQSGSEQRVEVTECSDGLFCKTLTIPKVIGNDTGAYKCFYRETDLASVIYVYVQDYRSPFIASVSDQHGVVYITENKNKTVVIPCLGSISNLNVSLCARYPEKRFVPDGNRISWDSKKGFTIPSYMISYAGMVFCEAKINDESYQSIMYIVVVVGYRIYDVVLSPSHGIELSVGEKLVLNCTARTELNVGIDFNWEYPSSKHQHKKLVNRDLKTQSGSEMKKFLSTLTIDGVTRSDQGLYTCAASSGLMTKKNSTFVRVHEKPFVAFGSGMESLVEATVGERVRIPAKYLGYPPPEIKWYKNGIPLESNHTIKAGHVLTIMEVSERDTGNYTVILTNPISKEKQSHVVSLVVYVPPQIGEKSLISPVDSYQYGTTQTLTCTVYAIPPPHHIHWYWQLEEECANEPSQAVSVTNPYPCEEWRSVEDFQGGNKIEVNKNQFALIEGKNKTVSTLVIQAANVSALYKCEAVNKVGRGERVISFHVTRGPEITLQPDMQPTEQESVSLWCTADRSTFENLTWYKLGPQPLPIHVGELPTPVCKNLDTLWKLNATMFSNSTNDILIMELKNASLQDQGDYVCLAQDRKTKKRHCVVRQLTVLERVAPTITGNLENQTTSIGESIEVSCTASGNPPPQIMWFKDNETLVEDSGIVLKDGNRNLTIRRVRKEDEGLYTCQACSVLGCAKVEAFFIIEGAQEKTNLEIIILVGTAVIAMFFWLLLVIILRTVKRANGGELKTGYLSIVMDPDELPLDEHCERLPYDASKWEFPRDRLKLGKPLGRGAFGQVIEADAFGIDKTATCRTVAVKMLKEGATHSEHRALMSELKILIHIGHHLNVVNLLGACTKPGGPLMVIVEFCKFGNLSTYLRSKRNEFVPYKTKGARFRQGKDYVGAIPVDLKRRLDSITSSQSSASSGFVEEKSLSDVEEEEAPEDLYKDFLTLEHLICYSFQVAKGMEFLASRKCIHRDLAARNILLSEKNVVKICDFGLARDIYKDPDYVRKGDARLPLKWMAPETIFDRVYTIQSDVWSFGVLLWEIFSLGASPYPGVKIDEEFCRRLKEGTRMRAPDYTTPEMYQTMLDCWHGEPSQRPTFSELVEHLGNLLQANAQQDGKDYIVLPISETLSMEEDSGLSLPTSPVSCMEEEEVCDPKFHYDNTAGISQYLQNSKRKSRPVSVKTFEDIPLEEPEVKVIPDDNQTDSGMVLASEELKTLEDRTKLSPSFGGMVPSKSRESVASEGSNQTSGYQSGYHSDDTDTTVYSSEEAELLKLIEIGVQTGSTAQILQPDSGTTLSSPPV

`COc1cc2ncnc(N[C@H](C)c3cccc4ccccc34)c2cc1OC` showed an Activity [1] of 75%, an Activity [2] of 95% and an Activity [3] of 87%. It also gave an Activity [4] of 100% and an Activity [5] of 70%.
